The nature of series [1]: In vitro subcutaneous tissue supernatant (SCts) stability and metabolite identification, rat. Further details: remaining at 2 h: dose or concentration left out as unconfirmed. Conditions: for remaining at 2 h: male, Sprague Dawley, rat subcutaneous tissue supernatant (SCts), 37° C. In kind it is in vitro ADME. Here is the method: In vitro metabolic stability in subcutaneous tissue supernatant (SCts) was studied in male Sprague Dawley rats. Test compounds were incubated […] for 2 hours at 37° C.
Software aided in vitro metabolite identification on SCts stability samples was performed using either Metabolite Pilot (Sciex) or Biopharma Finder (Thermo). In addition, metabolite identification using Metabolite Pilot was performed on plasma samples of Comp Y following SC administration to rat at 1 mg/kg.

Another series has as its target T1, human CRF2a receptor (Homo sapiens, UniProt Q13324).
T1 construct: expressed in transfected cells; host or cells: TeloHEAC cells
T1 sequence (Q13324 1-411): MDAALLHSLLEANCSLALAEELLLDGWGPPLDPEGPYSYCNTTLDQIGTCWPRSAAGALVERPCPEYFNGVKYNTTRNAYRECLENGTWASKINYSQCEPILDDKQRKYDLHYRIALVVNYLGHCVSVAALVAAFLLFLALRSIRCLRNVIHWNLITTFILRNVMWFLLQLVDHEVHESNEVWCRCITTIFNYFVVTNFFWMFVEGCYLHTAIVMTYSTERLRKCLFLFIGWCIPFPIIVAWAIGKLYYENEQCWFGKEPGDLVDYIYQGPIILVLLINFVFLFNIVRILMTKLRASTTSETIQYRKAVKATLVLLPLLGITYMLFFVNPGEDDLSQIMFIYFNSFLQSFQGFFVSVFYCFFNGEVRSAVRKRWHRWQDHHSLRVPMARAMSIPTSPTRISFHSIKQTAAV
The series can be described thus: Activity at human CRF2a receptor, cAMP functional assay in TeloHEAC cells. The class given is cell-based. The note with it: TeloHEAC cells stably expressing human CRF2a receptor, relative to urocortin 2 (100 nM = 100%). The essentials:
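TeloHEAC cells stably expressing human CRF2a (10000 cells/well) were treated with 16-point 1:2 compound dilutions in HBSS/20 mM HEPES with IBMX for 30 min at 37° C. cAMP was read by HTRF (665/620 nm ratio). EC50 was the concentration giving 50% activation, with 100 nM urocortin 2 set as 100%.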

A further series addresses T2, CFR1R receptor (Homo sapiens, UniProt P34998).
T2 construct: host or cells: CHO-K1 (clone 2)
T2 sequence (P34998 24-415): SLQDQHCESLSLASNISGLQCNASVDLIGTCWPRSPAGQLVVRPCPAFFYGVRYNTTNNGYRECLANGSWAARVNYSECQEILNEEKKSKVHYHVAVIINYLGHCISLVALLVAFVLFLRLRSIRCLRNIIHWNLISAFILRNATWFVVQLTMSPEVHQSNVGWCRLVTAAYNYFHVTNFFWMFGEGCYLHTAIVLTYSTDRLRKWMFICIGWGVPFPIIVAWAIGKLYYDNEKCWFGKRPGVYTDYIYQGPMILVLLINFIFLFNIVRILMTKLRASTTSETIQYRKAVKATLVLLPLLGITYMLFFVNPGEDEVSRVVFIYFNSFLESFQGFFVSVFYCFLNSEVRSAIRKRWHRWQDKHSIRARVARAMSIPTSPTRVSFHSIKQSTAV
Kind of series: Activity at anti-target CFR1R receptor, cAMP assay in CRF1R-overexpression CHO-K1 cells. The class given is cell-based. Conditions: 100% = Sauvagine at 100 nM; for EC50: cAMP. The essentials:
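The method mirrors that used with TeloHAEC cells. Here, thawed clone 2 cells seeded at 4000 cells/well are tested, and 100 nM Sauvagine sets the top of the activation scale.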
In general terms: cAMP levels reflect the balance of adenylyl cyclase and phosphodiesterase activity.

Series [2] is described as follows: Chemical stability in buffer (pH 7.4 / pH 4.5), % purity loss. In kind it is physicochemical. The note with it: 40° C. vs 5° C., 14 or 28 days; for Buffer stability pH 7.4 % purity loss: 100 mM phosphate buffer pH 7.4. In short, it runs like this:
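LC-UV gave % loss after 14 or 28 days of storage at 5 °C or 40 °C. Samples were diluted supernatants from compound incubated 1 h at room temperature at 10 mg/mL target, in 100 mM acetate pH 4.5 or 100 mM phosphate pH 7.4.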

*1 amine or outer side, *2 acyl side, *3 side chain or, on linkers, in order; H or OH if unused. Where a SMILES comes first, the peptide text is derived from it. Side-chain parts run from the residue outwards. [ ]: non-standard residue; d: D form. The star is where a group is joined. C18 diacid = O=C(O)CCCCCCCCCCCCCCCCC(=O)*; C16 diacid = O=C(O)CCCCCCCCCCCCCCC(=O)*; γGlu = O=C(O)[C@H](CCC(=O)[*:2])N[*:1]; Pentanoyl = CCCCC(=O)*; AEEA = NCCOCCOCC(=O)O; Ac3c = NC1(C(=O)O)CC1; Aib = CC(C)(N)C(=O)O

In the case of `CC[C@H](C)[C@H](N)C(=O)N[C@H](C(=O)N[C@@H](CC(C)C)C(=O)N[C@@H](CO)C(=O)N[C@@H](CC(C)C)C(=O)N[C@@H](CC(=O)O)C(=O)N[C@@H](C(=O)N1CCC[C@H]1C(=O)N[C@H](C(=O)N[C@@H](CCCCN)C(=O)N[C@@H](CC(C)C)C(=O)N[C@@H](CCCCNC(=O)CC[C@H](NC(=O)CCCCCCCCCCCCCCC(=O)O)C(=O)O)C(=O)N[C@@H](CCC(N)=O)C(=O)N[C@H](C(=O)N[C@@H](CC(C)C)C(=O)N[C@@H](CC(C)C)C(=O)N[C@@H](CCCCN)C(=O)N[C@@H](CCC(N)=O)C(=O)N[C@@H](CCC(=O)O)C(=O)N[C@@H](CCCNC(=N)N)C(=O)N[C@@H](CCC(N)=O)C(=O)N[C@@H](CCCCN)C(=O)N[C@@H](CCCCN)C(=O)N[C@@H](CCC(N)=O)C(=O)N[C@@H](CCCNC(=N)N)C(=O)N[C@@H](CCC(=O)O)C(=O)N[C@@H](CCC(N)=O)C(=O)N[C@@H](C)C(=O)N[C@@H](CCC(=O)O)C(=O)N[C@@H](CCCCN)C(=O)N[C@@H](CC(N)=O)C(=O)N[C@@H](CCCCN)C(=O)N[C@@H](CCC(N)=O)C(=O)N[C@H](C(=O)N[C@@H](CC(C)C)C(=O)N[C@@H](CCC(=O)O)C(=O)N[C@@H](CCC(N)=O)C(=O)N[C@H](C(N)=O)C(C)C)[C@@H](C)CC)[C@@H](C)CC)[C@@H](C)CC)C(C)C)C(C)C` [SEQ ID No. 151, reference compound] (H-IVLSLD[dV]PIKLK([γGlu-C16 diacid])QILLKQERQKKQREQAEKNKQILEQV-NH2), the “major metabolic soft spot, in vitro” value in series [1] (in vitro soft spot identification, rat SCts) is “N-terminus”.

As usually defined, the EC50 is the concentration needed to bring the measured effect to its halfway point. The amount remaining is what is left of the initial amount, in per cent. At human CRF2a receptor, `CCCCC(=O)N[C@H](C(=O)N[C@@H](CC(C)C)C(=O)N[C@@H](CO)C(=O)N[C@@H](CC(C)C)C(=O)N[C@@H](CC(=O)O)C(=O)N[C@@H](C(=O)N1CCC[C@H]1C(=O)N[C@H](C(=O)N[C@@H](CCCCN)C(=O)N[C@@H](CC(C)C)C(=O)N[C@@H](CCCCNC(=O)COCCOCCNC(=O)COCCOCCNC(=O)CC[C@H](NC(=O)CCCCCCCCCCCCCCCCC(=O)O)C(=O)O)C(=O)N[C@@H](CCCCN)C(=O)N[C@H](C(=O)N[C@@H](CC(C)C)C(=O)N[C@@H](CC(C)C)C(=O)N[C@@H](CCC(=O)O)C(=O)N[C@@H](CCC(N)=O)C(=O)N[C@@H](CCC(=O)O)C(=O)N[C@@H](CCCCN)C(=O)N[C@@H](CCC(N)=O)C(=O)N[C@@H](CCCCN)C(=O)N[C@@H](CCCCN)C(=O)N[C@@H](CCC(N)=O)C(=O)N[C@@H](CCCNC(=N)N)C(=O)N[C@@H](CCC(=O)O)C(=O)N[C@@H](CCC(N)=O)C(=O)N[C@@H](C)C(=O)N[C@@H](CCC(=O)O)C(=O)N[C@H](C(=O)N[C@@H](CC(N)=O)C(=O)N[C@H](C(=O)N[C@@H](CCC(N)=O)C(=O)N[C@H](C(=O)N[C@@H](CC(C)C)C(=O)N[C@@H](C)C(=O)N[C@@H](CCC(N)=O)C(=O)N[C@H](C(N)=O)C(C)C)[C@@H](C)CC)C(C)C)[C@@H](C)O)[C@@H](C)CC)[C@@H](C)CC)C(C)C)C(C)C` [compound 121] (Pentanoyl-VLSLD[dV]PIKLK([AEEA-AEEA-γGlu-C18 diacid])KILLEQEKQKKQREQAETNVQILAQV-NH2) registered an EC50 of 5.76 nM. Moreover, the share remaining at 2 h in series [1] was determined as 77%. For the same compound, at CFR1R receptor, the “Emax (% I)” value was 6 % I and the EC50 is greater than 250 nM.

Regarding `CC[C@H](C)[C@H](NC(C)=O)C(=O)N[C@H](C(=O)N[C@@H](CC(C)C)C(=O)N[C@@H](CO)C(=O)N[C@@H](CC(C)C)C(=O)N[C@@H](CC(=O)O)C(=O)N[C@@H](C(=O)N1CCC[C@H]1C(=O)N[C@H](C(=O)N[C@@H](CCCCN)C(=O)N[C@@H](CC(C)C)C(=O)N[C@@H](CCCCNC(=O)CC[C@H](NC(=O)CCCCCCCCCCCCCCCCC(=O)O)C(=O)O)C(=O)N[C@@H](CCCCN)C(=O)N[C@H](C(=O)N[C@@H](CC(C)C)C(=O)N[C@@H](CC(C)C)C(=O)N[C@@H](CCC(=O)O)C(=O)N[C@@H](CCC(N)=O)C(=O)N[C@@H](CCC(=O)O)C(=O)N[C@@H](CCCCN)C(=O)N[C@@H](CCC(N)=O)C(=O)N[C@@H](CCCCN)C(=O)N[C@@H](CCCCN)C(=O)N[C@@H](CCC(N)=O)C(=O)N[C@@H](CCCNC(=N)N)C(=O)N[C@@H](CCC(=O)O)C(=O)N[C@@H](CCC(N)=O)C(=O)N[C@@H](C)C(=O)N[C@@H](CCC(=O)O)C(=O)N[C@H](C(=O)N[C@@H](CC(N)=O)C(=O)NC1(C(=O)N[C@@H](CCC(N)=O)C(=O)N[C@H](C(=O)N[C@@H](CC(C)C)C(=O)N[C@@H](C)C(=O)N[C@@H](CCC(N)=O)C(=O)N[C@H](C(N)=O)C(C)C)[C@@H](C)CC)CC1)[C@@H](C)O)[C@@H](C)CC)[C@@H](C)CC)C(C)C)C(C)C` [compound 136] (Ac-IVLSLD[dV]PIKLK([γGlu-C18 diacid])KILLEQEKQKKQREQAETN[Ac3c]QILAQV-NH2), on human CRF2a receptor, a half-maximal response (EC50) required 0.16 nM. Moreover, the “Buffer stability pH 4.5 % purity loss” value in series [2] (100 mM acetate buffer pH 4.5) was 0.0%. For the same compound, the “Buffer stability pH 7.4 % purity loss” value in series [2] was found to be 24.3%. In series [1], the amount remaining at 2 h came out at 78%. On CFR1R receptor, the “Emax (% I)” value is 5 % I and the EC50 was greater than 250 nM.

Take `CC[C@H](C)[C@H](NC(C)=O)C(=O)N[C@H](C(=O)N[C@@H](CC(C)C)C(=O)N[C@@H](CO)C(=O)N[C@@H](CC(C)C)C(=O)N[C@@H](CC(=O)O)C(=O)N[C@@H](C(=O)N1CCC[C@H]1C(=O)N[C@H](C(=O)N[C@@H](CCCCN)C(=O)N[C@@H](CC(C)C)C(=O)N[C@@H](CCCCNC(=O)CC[C@H](NC(=O)CCCCCCCCCCCCCCC(=O)O)C(=O)O)C(=O)N[C@@H](CCCCN)C(=O)N[C@H](C(=O)N[C@@H](CC(C)C)C(=O)N[C@@H](CC(C)C)C(=O)N[C@@H](CCC(=O)O)C(=O)N[C@@H](CCC(N)=O)C(=O)N[C@@H](CCC(=O)O)C(=O)N[C@@H](CCCCN)C(=O)N[C@@H](CCC(N)=O)C(=O)N[C@@H](CCCCN)C(=O)N[C@@H](C)C(=O)N[C@@H](CCC(N)=O)C(=O)N[C@@H](CCCNC(=N)N)C(=O)N[C@@H](CCC(=O)O)C(=O)N[C@@H](CCC(N)=O)C(=O)N[C@@H](C)C(=O)N[C@@H](CCC(=O)O)C(=O)N[C@H](C(=O)N[C@@H](CC(N)=O)C(=O)NC(C)(C)C(=O)N[C@@H](CCC(N)=O)C(=O)N[C@H](C(=O)N[C@@H](CC(C)C)C(=O)N[C@@H](C)C(=O)N[C@@H](CCC(N)=O)C(=O)N[C@H](C(N)=O)C(C)C)[C@@H](C)CC)[C@@H](C)O)[C@@H](C)CC)[C@@H](C)CC)C(C)C)C(C)C` [compound 161] (Ac-IVLSLD[dV]PIKLK([γGlu-C16 diacid])KILLEQEKQKAQREQAETN[Aib]QILAQV-NH2): the midpoint of the response at human CRF2a receptor, the EC50, lay at 0.32 nM. The “Buffer stability pH 7.4 % purity loss” value in series [2] is recorded as 0.6/Not Tested %. Further, in series [1], the amount remaining at 2 h came to 59%. For the same compound, on CFR1R receptor, the “Emax (% I)” value amounted to 3 % I and the EC50 is greater than 250 nM.

The record behind these values is patent US20260001928A1 (CORTERIA PHARMACEUTICALS, priority 2022, published 2026).
